The record followed here is ChEMBL document CHEMBL5465560, “Selectivity Literature for EUbOPEN Chemogenomic Library” (2024).

Structures are written as SMILES.

In test [1] the target is T1, Testis-specific serine/threonine-protein kinase 1 (Homo sapiens) (UniProt Q9BXA7).
T1 sequence (whole entry): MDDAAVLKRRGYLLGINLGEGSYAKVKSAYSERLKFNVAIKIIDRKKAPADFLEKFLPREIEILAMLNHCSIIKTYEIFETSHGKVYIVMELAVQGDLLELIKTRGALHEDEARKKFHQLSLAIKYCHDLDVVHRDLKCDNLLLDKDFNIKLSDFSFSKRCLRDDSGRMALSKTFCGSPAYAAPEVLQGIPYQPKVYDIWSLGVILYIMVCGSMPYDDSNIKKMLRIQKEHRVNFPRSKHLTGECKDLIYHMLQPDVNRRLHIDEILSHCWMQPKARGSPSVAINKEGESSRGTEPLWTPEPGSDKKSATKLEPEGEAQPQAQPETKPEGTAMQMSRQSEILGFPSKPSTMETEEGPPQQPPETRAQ
Conditions: at 10 µM.

The target of test [2] is Calcium/calmodulin-dependent protein kinase kinase 2 (Homo sapiens) (UniProt Q96RR4). The experiment in a line: Selectivity interaction (ActivX KiNativ screen (kinase selectivity in THP-1 cell lysates)) EUB0000639a CAMKK2. The class given is subcellular. Conditions: lysate.
Calcium/calmodulin-dependent protein kinase kinase 2 (Homo sapiens), sequence (Q96RR4 2-588 limits assumed): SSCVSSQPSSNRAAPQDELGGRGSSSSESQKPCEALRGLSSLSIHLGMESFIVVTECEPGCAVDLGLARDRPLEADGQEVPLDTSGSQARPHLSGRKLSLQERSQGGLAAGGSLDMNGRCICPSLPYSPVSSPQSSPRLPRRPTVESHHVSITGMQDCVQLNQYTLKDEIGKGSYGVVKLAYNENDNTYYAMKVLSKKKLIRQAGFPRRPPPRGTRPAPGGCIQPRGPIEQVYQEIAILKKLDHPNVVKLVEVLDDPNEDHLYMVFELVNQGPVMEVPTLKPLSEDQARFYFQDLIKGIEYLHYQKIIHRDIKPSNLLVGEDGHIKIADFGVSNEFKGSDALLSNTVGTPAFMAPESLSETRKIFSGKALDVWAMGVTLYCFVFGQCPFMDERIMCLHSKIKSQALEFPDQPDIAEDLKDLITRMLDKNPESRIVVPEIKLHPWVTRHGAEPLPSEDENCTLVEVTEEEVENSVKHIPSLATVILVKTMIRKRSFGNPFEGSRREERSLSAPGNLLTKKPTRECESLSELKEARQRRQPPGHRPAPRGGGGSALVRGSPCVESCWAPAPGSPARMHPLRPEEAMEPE
Test [3] deals with T2, Serine/threonine-protein kinase Nek1 (Homo sapiens) (UniProt Q96PY6).
T2 sequence (whole entry): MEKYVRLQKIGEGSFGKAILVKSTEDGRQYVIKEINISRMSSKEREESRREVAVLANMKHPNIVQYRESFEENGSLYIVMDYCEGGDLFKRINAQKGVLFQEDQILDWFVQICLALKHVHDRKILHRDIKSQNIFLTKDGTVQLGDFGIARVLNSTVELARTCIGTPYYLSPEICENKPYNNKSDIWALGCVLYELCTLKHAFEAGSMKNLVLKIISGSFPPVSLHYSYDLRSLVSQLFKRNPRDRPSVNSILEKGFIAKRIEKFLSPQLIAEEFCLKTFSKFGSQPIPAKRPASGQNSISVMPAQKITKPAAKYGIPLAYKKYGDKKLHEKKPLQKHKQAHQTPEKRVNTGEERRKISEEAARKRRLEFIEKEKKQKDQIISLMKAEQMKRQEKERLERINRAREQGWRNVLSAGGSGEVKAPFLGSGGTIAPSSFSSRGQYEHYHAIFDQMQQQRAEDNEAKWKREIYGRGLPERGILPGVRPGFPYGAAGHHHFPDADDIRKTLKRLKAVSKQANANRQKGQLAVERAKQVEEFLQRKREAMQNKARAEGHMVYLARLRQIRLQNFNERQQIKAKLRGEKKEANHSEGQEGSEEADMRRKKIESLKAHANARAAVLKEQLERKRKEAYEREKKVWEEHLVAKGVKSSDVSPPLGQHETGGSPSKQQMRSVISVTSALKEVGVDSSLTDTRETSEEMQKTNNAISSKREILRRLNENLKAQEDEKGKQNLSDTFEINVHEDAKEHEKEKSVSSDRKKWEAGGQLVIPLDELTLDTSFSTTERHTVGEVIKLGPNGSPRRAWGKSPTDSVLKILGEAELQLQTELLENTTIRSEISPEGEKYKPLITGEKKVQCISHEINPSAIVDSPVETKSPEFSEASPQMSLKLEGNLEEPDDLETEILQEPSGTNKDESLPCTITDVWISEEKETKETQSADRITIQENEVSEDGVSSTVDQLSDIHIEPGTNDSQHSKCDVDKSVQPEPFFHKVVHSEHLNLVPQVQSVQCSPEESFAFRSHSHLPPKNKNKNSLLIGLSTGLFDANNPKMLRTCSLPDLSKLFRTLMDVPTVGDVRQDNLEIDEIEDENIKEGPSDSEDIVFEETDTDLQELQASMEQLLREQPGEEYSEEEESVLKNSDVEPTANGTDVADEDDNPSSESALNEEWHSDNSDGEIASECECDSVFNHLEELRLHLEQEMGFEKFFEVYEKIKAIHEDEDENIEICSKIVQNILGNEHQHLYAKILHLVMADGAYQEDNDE
The experiment in a line: Selectivity interaction (KinomeScan (DiscoverX)) EUB0000092b NEK1. The conditions noted are these: at 10 µM.

The target in test [4] is Serine/threonine-protein kinase SIK3 (Homo sapiens) (UniProt Q9Y2K2). Briefly: Selectivity interaction (KinomeScan (DiscoverX)) EUB0001079a SIK3. Conditions: at 1 µM.
Serine/threonine-protein kinase SIK3 (Homo sapiens), sequence (Q9Y2K2 whole entry, looked up): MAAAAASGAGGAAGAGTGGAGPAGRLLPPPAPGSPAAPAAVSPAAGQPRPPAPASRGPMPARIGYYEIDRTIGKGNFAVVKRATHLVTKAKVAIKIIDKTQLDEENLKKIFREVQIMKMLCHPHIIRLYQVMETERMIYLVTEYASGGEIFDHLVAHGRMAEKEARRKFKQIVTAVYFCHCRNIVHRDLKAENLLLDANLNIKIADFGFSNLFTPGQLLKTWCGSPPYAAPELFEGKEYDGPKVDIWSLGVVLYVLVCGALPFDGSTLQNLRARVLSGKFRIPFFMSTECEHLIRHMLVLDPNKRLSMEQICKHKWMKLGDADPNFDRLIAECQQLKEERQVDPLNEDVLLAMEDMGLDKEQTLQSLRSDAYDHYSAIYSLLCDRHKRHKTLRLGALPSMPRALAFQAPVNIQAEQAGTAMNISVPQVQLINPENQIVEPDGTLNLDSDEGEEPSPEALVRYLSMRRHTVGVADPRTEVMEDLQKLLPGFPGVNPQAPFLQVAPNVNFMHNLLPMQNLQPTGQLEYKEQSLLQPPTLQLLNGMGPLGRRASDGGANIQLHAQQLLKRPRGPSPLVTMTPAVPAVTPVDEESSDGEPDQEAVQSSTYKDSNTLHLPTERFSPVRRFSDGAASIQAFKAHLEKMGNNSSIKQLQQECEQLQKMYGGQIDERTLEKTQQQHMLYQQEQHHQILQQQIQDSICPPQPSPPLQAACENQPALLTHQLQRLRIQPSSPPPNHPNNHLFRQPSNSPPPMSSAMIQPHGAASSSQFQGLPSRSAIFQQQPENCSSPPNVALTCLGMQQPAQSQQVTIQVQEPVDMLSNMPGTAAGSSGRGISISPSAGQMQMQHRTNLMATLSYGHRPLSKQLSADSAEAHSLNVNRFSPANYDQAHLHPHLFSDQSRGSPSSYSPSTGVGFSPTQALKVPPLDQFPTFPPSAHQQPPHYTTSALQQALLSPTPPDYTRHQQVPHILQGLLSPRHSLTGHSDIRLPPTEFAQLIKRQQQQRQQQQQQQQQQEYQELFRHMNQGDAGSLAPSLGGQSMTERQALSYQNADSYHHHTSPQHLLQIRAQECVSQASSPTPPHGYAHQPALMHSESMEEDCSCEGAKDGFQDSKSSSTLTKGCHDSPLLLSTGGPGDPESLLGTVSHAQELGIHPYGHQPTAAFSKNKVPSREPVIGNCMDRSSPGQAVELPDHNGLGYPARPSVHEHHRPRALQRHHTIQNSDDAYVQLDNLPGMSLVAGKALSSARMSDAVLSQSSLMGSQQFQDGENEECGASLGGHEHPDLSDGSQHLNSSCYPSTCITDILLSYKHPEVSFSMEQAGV
Test [5] addresses Mast/stem cell growth factor receptor Kit (Homo sapiens, UniProt P10721). The experiment in a line: Selectivity interaction (KinomeScan (DiscoverX)) EUB0000229b KIT. Conditions: at 10 µM.
The target of test [6] is T3, Tyrosine-protein kinase ITK/TSK (Homo sapiens) (UniProt Q08881).
T3 sequence (whole entry): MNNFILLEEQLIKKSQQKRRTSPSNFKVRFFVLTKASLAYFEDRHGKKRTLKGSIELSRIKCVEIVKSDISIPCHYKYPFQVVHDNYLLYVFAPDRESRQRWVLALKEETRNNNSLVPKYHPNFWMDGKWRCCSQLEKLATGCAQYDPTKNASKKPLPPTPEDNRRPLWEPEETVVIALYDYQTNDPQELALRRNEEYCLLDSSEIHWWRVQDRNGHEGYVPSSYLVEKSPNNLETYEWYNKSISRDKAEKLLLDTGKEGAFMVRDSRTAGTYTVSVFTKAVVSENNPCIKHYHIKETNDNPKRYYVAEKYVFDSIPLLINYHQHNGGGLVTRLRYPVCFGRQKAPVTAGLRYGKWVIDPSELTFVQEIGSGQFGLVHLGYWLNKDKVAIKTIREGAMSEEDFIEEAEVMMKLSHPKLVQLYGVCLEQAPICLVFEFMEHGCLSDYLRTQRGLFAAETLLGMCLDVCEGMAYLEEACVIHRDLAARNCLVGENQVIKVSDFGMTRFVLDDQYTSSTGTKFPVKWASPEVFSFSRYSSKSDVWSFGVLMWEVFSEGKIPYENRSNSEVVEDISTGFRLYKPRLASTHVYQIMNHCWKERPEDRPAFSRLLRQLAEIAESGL
The experiment in a line: Selectivity interaction (Kinase panel (KiNativ target engagement assay in Jurkat cells)) EUB0001635a ITK. The format is cell-based. Conditions: at 1 µM.

Mast/stem cell growth factor receptor Kit, sequence (P10721 whole entry): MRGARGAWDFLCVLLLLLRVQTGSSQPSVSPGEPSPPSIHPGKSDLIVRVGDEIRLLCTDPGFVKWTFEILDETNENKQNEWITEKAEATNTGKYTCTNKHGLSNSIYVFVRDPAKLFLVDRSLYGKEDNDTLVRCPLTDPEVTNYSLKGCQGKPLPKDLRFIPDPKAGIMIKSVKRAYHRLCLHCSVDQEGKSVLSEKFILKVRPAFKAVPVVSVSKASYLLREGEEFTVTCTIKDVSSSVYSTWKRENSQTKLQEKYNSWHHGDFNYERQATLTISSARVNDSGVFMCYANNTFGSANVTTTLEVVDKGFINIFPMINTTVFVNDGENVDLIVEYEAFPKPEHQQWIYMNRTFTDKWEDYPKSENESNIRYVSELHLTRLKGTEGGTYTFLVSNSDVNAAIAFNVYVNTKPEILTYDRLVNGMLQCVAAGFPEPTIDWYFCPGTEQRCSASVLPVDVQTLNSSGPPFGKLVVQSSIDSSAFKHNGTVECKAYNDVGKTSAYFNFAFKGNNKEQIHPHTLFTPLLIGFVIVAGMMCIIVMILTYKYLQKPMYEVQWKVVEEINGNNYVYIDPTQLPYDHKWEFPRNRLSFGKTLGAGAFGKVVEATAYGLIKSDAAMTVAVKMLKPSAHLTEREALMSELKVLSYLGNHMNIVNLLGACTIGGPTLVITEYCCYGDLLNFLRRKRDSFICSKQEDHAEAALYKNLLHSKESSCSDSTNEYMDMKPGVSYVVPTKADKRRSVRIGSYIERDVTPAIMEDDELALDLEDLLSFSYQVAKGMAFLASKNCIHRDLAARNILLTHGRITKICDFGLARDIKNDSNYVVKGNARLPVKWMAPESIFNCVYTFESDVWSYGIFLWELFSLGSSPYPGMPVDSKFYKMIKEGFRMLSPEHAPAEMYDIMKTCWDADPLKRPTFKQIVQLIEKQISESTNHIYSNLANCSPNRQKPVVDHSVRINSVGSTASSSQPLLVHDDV

On to `Cc1cc([C@@H](C)Nc2ccccc2C(=O)O)c2nc(N3CCOCC3)cc(=O)n2c1` [AZD-6482], for which, in test [1], the % of control was determined as 100%.
Regarding `CC[C@@H]1[C@H](F)C(=O)N[C@@H]1COc1nccc2cc(C(N)=O)c(OC)cc12` [ZIMLOVISERTIB], the % of inhibition in test [2] (at 0.01 µM) was 5.1%; in test [2] (at 0.04 µM) it was 9.8%; in test [2] (at 0.2 µM), 8.1%; in test [2] (at 1 µM) it was 37.6%; in test [2] (at 5 µM), 63.5%.
On to `CCC(=O)N1CCN(c2ccc(-n3c(=O)ccc4cnc5ccc(-c6cnc7ccccc7c6)cc5c43)cc2C(F)(F)F)CC1`, for which the % of control in test [3] is 89%.
Molecule `Nc1cnc(N2CCc3cc(S(=O)(=O)Nc4c(F)cc(Cl)cc4F)cc(N4CCCC4=O)c32)nc1` [TP-020n] displayed a % of control in test [4] of 83%.
`COc1cc(N(C)c2ccnc3ccc(C(F)(F)F)cc23)cc(OC)c1OC` gave a % binding in test [5] of 99%.
As to `C=CC(=O)Nc1ccc(C(=O)Nc2[nH]nc3c2CN(C(=O)N[C@H](CN(C)C)c2ccccc2)C3(C)C)cc1`, the % of engagement worked out at 0.3% in test [6] (Selectivity number of off-targets 0.0, Selectivity number of targets 233.0, Source Knowledge https://www.sciencedirect.com/science/article/pii/S2451945619300674?via%3Dihub) and 2.5% in test [6].
